In patent US10006064B2, “Biosynthetic pathways, recombinant cells, and methods” (REGENTS OF THE UNIVERSITY OF MINNESOTA, priority 2012, dated 2018):
≈ marks a conversion by molar mass, not a printed value.

Tests used:
[1] = solubility in water / aqueous medium; cited from earlier work
E. coli strain BW25113 [2] = test: Shake flask fermentation with candidate alcohol acyltransferases, isoamyl acetate production (GC-FID); assay type: cell-based; details: strains identical except for the AAT, with leuABCD; 20 g/L glucose, 30° C., 48 hours
Excerpt: (§1) Each was cloned and transformed into E. coli strain BW25113 for analysis.
(§2) Three synthetic operons were constructed for gene expression to produce isobutyl acetate and isoamyl acetate (FIG. 5). All the plasmids were constructed to be under the regulation of PLlacO1 promoter. To produce isobutyl acetate, the first operon included four coding regions on a medium copy plasmid carrying kanamycin resistance marker in a transcriptional order ilvC-ilvD-alsS-AAT, with the ATT position being occupied by the coding region of one of the five exemplary acyltransferases (AAT) being analyzed. (FIG. 5(a)). The second operon included two coding regions on a high copy plasmid with an ampicillin resistance maker in a transcriptional order kivd-yqhD. For the synthesis of isoamyl acetate, the coding regions of leuA, leuB, leuC, and leuD involved in leucine biosynthesis were introduced in the first medium copy plasmid between alsS and AAT, and the same second high copy plasmid was used. (FIG. 5(b)).
(§3) We assessed the effect of each of the five exemplary acyltransferases on the production titers for isobutyl acetate and isoamyl acetate. […]
(§4) Shake flask fermentations were carried out for the recombinant strains. […] The produced medium-chain ester compounds were quantified by GC-FID (gas chromatography-flame ionization detector) analysis. […]

E. coli strain BW25113 [3] = test: Shake flask fermentation with candidate alcohol acyltransferases, isobutyl acetate production (GC-FID); assay type: cell-based; details: strains identical except for the AAT; 20 g/L glucose, 30° C., 48 hours; ± standard deviation, three colonies
Excerpt: as §1, §2, §3, §4

Molecule: CCO [Ethanol]
- Solubility [1]: miscible

Molecule: CCOC(C)=O [Ethyl acetate]
- Solubility [1]: 83000 µg/mL

Molecule: CCOC(=O)C(C)C [Ethyl isobutyrate]
- Solubility [1]: 3200 µg/mL (≈ 27.5 mM)

Molecule: CCOC(=O)CC(C)C [Ethyl isovalerate]
- Solubility [1]: 2000 µg/mL (≈ 15.4 mM)

Molecule: CC(C)COC(=O)C(C)C [isobutyl isobutyrate]
- Solubility [1]: 500 µg/mL (≈ 3.47 mM)

Molecule: CC(C)CC(=O)OC(=O)CC(C)C [isovaleryl isovalerate]
- Solubility [1]: insoluble

B1: ATF2: Alcohol acetyltransferase from S. cerevisiae, expressed in recombinant E. coli BW25113 (protein, listed as Saccharomyces cerevisiae)
chain: MEDIEGYEPHITQELIDRGHARRMGHLENYFAVLSRQKMYSNFTVYAELNKGVNKRQLMLVLKVLLQKYSTLAHTIIPKHYPHHEAYYSSEEYLSKPFPQHDFIKVISHLEFDDLIMNNQPEYREVMEKISEQFKKDDFKVTNRLIELISPVIIPLGNPKRPNWRLICLPGKDTDGFETWKNFVYVTNHCGSDGVSGSNFFKDLALLFCKIEEKGFDYDEEFIEDQVIIDYDRDYTEISKLPKPITDRIDYKPALTSLPKFFLTTFIYEHCNFKTSSESTLTARYSPSSNANASYNYLLHFSTKQVEQIRAQIKKNVHDGCTLTPFIQACFLVALYRLDKLFTKSLLEYGFDVAIPSNARRFLPNDEELRDSYKYGSNVGGSHYAYLISSFDIPEGDNDKFWSLVEYYYDRFLESYDNGDHLIGLGVLQLDFIVENKNIDSLLANSYLHQQRGGAIISNTGLVSQDTTKPYYVRDLIFSQSAGALRFAFGLNVCSTNVNGMNMDMSVVQGTLRDRGEWESFCKLFYQTIGEFASL
- isoamyl acetate production titer (E. coli strain BW25113 [2]): highest production titers
- isobutyl acetate production titer (E. coli strain BW25113 [3]): 1.69 ± 0.46 g/L

B2: ATF1: Alcohol acetyltransferase from S. cerevisiae, expressed in recombinant E. coli BW25113 (protein, listed as Saccharomyces cerevisiae)
chain: MDLWKRLFEANPTKIRDKKIKNGHFISITNTINLSALMNEIDEKNQAPVQQECLKEMIQNGHARRMGSVEDLYVALNRQNLYRNFCTYGELSDYCTRDQLTLALREICLKNPTLLHIVLPTRWPNHENYYRSSEYYSRPHPVHDYISVLQELKLSGVVLNEQPEYSAVMKQILEEFKNSKGSYTAKIFKLTTTLTIPYFGPTGPSWRLICLPEEHTEKWKKFIFVSNHCMSDGRSSIHFFHDLRDELNNIKTPPKKLDYIFKYEEDYQLLRKLPEPIEKVIDFRPPYLFIPKSLLSGFIYNHLRFSSKGVCMRMDDVEKTDDVVTEIINISPTEFQAIKANIKSNIQGKCTITPFLHVCWFVSLHRWGKFFKPLNFEWLTDIFIPADCRSQLPDDDEMRQMYRYGANVGFIDFTPWISEFDMNDNKENFWPLIEHYHEVISEALRNKKHLHGLGFNIQGFVQKYVNIDKVMCDRAIGKRRGGTLLSNVGLFNQLEEPDAKYSICDLAFGQFQGSWHQAFSLGVCSTNVKGMNIVVASTKNVVGSQESLEELCSIYKALLLGP
- isoamyl acetate production titer (E. coli strain BW25113 [2]): highest production titers
- isobutyl acetate production titer (E. coli strain BW25113 [3]): 2.14 ± 0.17 g/L
